We go through 26 compounds from patent publication US5717095A, “Nucleotide analogs” (Gilead Sciences, Inc., priority 1996, dated 1998).

For one data set, the system named is HSV II. The experiment in a line: Inhibition of cytopathic effects by HSV II in MA 104 cells (XTT). Format: cell-based, HSV-2. Conditions: for IC50: Human alphaherpesvirus 2, MA104. The procedure:
Compounds were individually tested for activity against HSV-1 and/or HSV-2. HSV-2 (strain 414-92) was tested using MA 104 cells in the following assay protocol. 96-Well plates were seeded with 1×10^4 MA 104 cells per well using 200 μL minimal essential medium (MEM) containing 10% calf serum per well, and incubated overnight at 37° C. The compounds were dissolved in MEM Earle's Salts without serum. The medium was removed by aspiration and 100 μL MEM Earle's Salts without serum was added to the wells. Serial 3-fold dilutions of the compounds were prepared by serial transfer of 50 μL of medium from wells containing compound to wells lacking compound. The plates were incubated 15 minutes at 37° C. followed by addition of 100 PFU/well of virus in MEM Earle's Salts with 2% fetal bovine serum. The plates were then incubated at 37° C. for three days until approximately 90% of the cells in virus infected control wells containing no compound were killed. Following incubation, medium was aspirated and the wells were washed with sterile PBS. […] The results, shown in Table 6, were expressed as the IC50, the concentration (μM) that inhibits cell killing mediated by HSV-2 by 50%. […] The toxicity of the compounds were expressed as the CC50, the concentration that kills 50% of uninfected cells.
Background: Cytopathic effects are the visible damage that an infection or toxin causes in cultured cells.

Data set [1] concerns herpes simplex virus, type 1 or 2 (HSV-1 and -2). The settings on record: cited from earlier work.
In data set [2] the test system is varicella zoster virus (VZV). The settings on record: cited from earlier work.
Another data set relates to vaccinia virus. The settings on record: cited from earlier work.
Another data set has as its system adenovirus. The settings on record: cited from earlier work.
The test system of the next data set is HSV-2 (strain 414-92). The data set can be described thus: Inhibition of HSV-2 mediated cell killing in MA 104 cells (crystal violet). Format: cell-based. The settings on record: Human alphaherpesvirus 2, MA104, 72 h, read-out: HSV-2 IC50, concentration that inhibits cell killing mediated by HSV-2 by 50%. Here is the method:
Compounds were individually tested for activity against HSV-1 and/or HSV-2. HSV-2 (strain 414-92) was tested using MA 104 cells in the following assay protocol. 96-Well plates were seeded with 1×10^4 MA 104 cells per well using 200 μL minimal essential medium (MEM) containing 10% calf serum per well, and incubated overnight at 37° C. The compounds were dissolved in MEM Earle's Salts without serum. The medium was removed by aspiration and 100 μL MEM Earle's Salts without serum was added to the wells. Serial 3-fold dilutions of the compounds were prepared by serial transfer of 50 μL of medium from wells containing compound to wells lacking compound. The plates were incubated 15 minutes at 37° C. followed by addition of 100 PFU/well of virus in MEM Earle's Salts with 2% fetal bovine serum. The plates were then incubated at 37° C. for three days until approximately 90% of the cells in virus infected control wells containing no compound were killed. Following incubation, medium was aspirated and the wells were washed with sterile PBS. 100 μL 0.5% crystal violet in 20% methanol was then added to the wells for 5 minutes, aspirated and the wells were washed two or three times with distilled water. 200 μL of 0.01 N HCl was added to the wells and the absorbance of each well at 595 nm was determined. The results, shown in Table 6, were expressed as the IC50, the concentration (μM) that inhibits cell killing mediated by HSV-2 by 50%. […] The toxicity of the compounds were expressed as the CC50, the concentration that kills 50% of uninfected cells.

The nature of data set [3]: Toxicity to uninfected MA 104 cells. Format: cell-based. The settings on record: monkey, read-out: CC50, concentration that kills 50% of uninfected cells.
A further data set concerns KOS strain of HSV-1. The experiment in a line: Activity against KOS strain of HSV-1 in VERO cells. It counts as cell-based. The settings on record: read-out: HSV-1 EC50, concentration that inhibits cell killing by 50%. The procedure:
The compounds were also tested for activity against the KOS strain of HSV-1 in VERO cells. The results, shown in Table 7, were expressed as the EC50, the concentration (μM) that inhibits cell killing mediated by HSV-2 by 50%.

The next data set has as its system HCMV. The data set can be described thus: Activity against HCMV in tissue culture (NHDF cell line). Format: cell-based. The settings on record: Human betaherpesvirus 5. From the text:
The title compound was synthesized using N^4 -benzoyl HPMPC diethyl ester tritylated at the hydroxyl group as a starting material. The starting material was detritylated using acetic acid and then converted to N^4 -benzoyl HPMPC using TMSBr. The resulting compound was converted to N^4 -benzoyl cHPMPC using DCC and morpholine in pyridine.

Data set [4] has as its system human cytomegalovirus (HCMV). The settings on record: in both humans and animals; cited from earlier work.
For data set [5] the following is noted: rhesus monkey, in vivo; cited from earlier work.
A further data set in a line: in vitro. It counts as cell-based. The settings on record: monkey, ma 104 cells. Here is the method: Compounds were individually tested for activity against HSV-1 and/or HSV-2. HSV-2 (strain 414-92) was tested using MA 104 cells in the following assay protocol. 96-Well plates were seeded with 1×10^4 MA 104 cells per well using 200 μL minimal essential medium (MEM) containing 10% calf serum per well, and incubated overnight at 37° C. The compounds were dissolved in MEM Earle's Salts without serum. The medium was removed by aspiration and 100 μL MEM Earle's Salts without serum was added to the wells. Serial 3-fold dilutions of the compounds were prepared by serial transfer of 50 μL of medium from wells containing compound to wells lacking compound. The plates were incubated 15 minutes at 37° C. followed by addition of 100 PFU/well of virus in MEM Earle's Salts with 2% fetal bovine serum. The plates were then incubated at 37° C. for three days until approximately 90% of the cells in virus infected control wells containing no compound were killed. Following incubation, medium was aspirated and the wells were washed with sterile PBS. 100 μL 0.5% crystal violet in 20% methanol was then added to the wells for 5 minutes, aspirated and the wells were washed two or three times with distilled water. 200 μL of 0.01 N HCl was added to the wells and the absorbance of each well at 595 nm was determined. […]

The nature of the next data set: in vivo. Conditions: rhesus monkey, po.
Data set [6] in a line: Conversion in rat intestinal homogenate. It counts as in vitro ADME. From the text: (§1) The cHPMPC pivaloyloxymethyl ester synthesis yields a racemic mixture at the phosphorus atom. The mixture was separated by HPLC into the two isomers which were then exposed to an rat intestinal homogenate or to a rat intestinal wash.
Data set [7] can be described thus: Conversion in rat intestinal wash. It counts as in vitro ADME. Conditions: both phosphorus isomers.
Description: as §1

Setting [8] is: MA 104 cells, HSV-2 strain 414-92, three days.
Where [9] appears, read: Human alphaherpesvirus 1, KOS strain of HSV-1, VERO cells.

Where two headings read alike, the source gives them in different places.

For `CCOC(=O)c1ccccc1OP(=O)(COCCn1cnc2c(N)ncnc21)Oc1ccccc1C(=O)OCC`, in the data set with HSV II, the “activity (inhibition of cytopathic effects)” value is “active”.
For the compound `Nc1nc(N)c2ncn(C[C@@H](CO)OCP(=O)(O)O)c2n1` [(S)-HPMPDAP], in data set [1], the antiviral activity result is reported as “active”.
Regarding `Nc1nc2c(ncn2C[C@@H](CO)OCP(=O)(O)O)c(=O)[nH]1` [(S)-HPMPG], the antiviral activity entry in data set [1] was “active”.
For the compound `Nc1ncnc2c1ncn2C[C@H]1COP(=O)(O)CO1` [(S)-cyclic HPMPA], the antiviral activity result (in data set [1]; in [2]; in the data set with vaccinia virus; in the data set with adenovirus) was “active” throughout.
Consider `CC(NP(=O)(COCCn1cnc2c(N)ncnc21)NC(C)C(=O)OCc1ccccc1)C(=O)OCc1ccccc1` (stereo not shown) [Ex 1, bis(alanyl benzyl ester)PMEA], for which, in the data set on HSV-2 (strain 414-92) (setting [8]), the IC50 came to 20 µM. Also, the CC50 at 72 h in data set [3] was more than 100 µM.
Turning to `Nc1ncnc2c1ncn2CCOCP(=O)(NC(Cc1ccccc1)C(=O)OCc1ccccc1)NC(Cc1ccccc1)C(=O)OCc1ccccc1` (stereo not shown) [Ex 2], the IC50 in the data set with HSV-2 (strain 414-92) (setting [8]) turned out to be 4 µM. Also, in data set [3], the CC50 at 72 h worked out at 20 µM.
Turning to `Nc1ncnc2c1ncn2CCOCP(=O)(NCC(=O)OCc1ccccc1)NCC(=O)OCc1ccccc1` [Ex 4, bis(glycyl benzyl ester)PMEA], the IC50 in the data set on HSV-2 (strain 414-92) (setting [8]) is 60 µM. The CC50 at 72 h in data set [3] is more than 100 µM.
Taken in the same sequence, the figures for `CCOC(=O)C(C)NP(=O)(COCCn1cnc2c(N)ncnc21)NC(C)C(=O)OCC` (stereo not shown) [Ex 5] were more than 100 µM and more than 100 µM.
With `CCOC(=O)C(CC(C)C)NP(=O)(COCCn1cnc2c(N)ncnc21)NC(CC(C)C)C(=O)OCC` (stereo not shown) [Ex 6], in the data set with HSV-2 (strain 414-92) (setting [8]), the IC50 turned out to be 33 µM. Further, in the data set on KOS strain of HSV-1 (setting [9]), the EC50 was found to be 20 µM. For the same compound, the CC50 at 72 h in [3] was more than 100 µM.
As for `CCOC(=O)CNP(=O)(COCCn1cnc2c(N)ncnc21)NCC(=O)OCC` [Ex 7], in the data set on HSV-2 (strain 414-92) (setting [8]), the IC50 was more than 100 µM. Further, the EC50 in the data set on KOS strain of HSV-1 (setting [9]) is more than 200 µM. Also, the CC50 at 72 h in data set [3] is more than 100 µM.
As for `CC(C)CC(NP(=O)(COCCn1cnc2c(N)ncnc21)NC(CC(C)C)C(=O)OC(C)(C)C)C(=O)OC(C)(C)C` (stereo not shown) [Ex 9], the IC50 in the data set on HSV-2 (strain 414-92) (setting [8]) worked out at 63 µM. Also, in the data set with KOS strain of HSV-1 (setting [9]), the EC50 came out at 63 µM. For the same compound, the CC50 at 72 h in data set [3] was more than 100 µM.
As for `CC(NP(=O)(COCCn1cnc2c(N)ncnc21)NC(C)C(=O)OC(C)(C)C)C(=O)OC(C)(C)C` (stereo not shown) [Ex 10], the IC50 in the data set on HSV-2 (strain 414-92) (setting [8]) was more than 100 µM. In addition, the EC50 in the data set on KOS strain of HSV-1 (setting [9]) was more than 200 µM. Besides, in data set [3], the CC50 at 72 h was more than 100 µM.
For the compound `CC(C)(C)OC(=O)CNP(=O)(COCCn1cnc2c(N)ncnc21)NCC(=O)OC(C)(C)C` [Ex 11], in the data set with HSV-2 (strain 414-92) (setting [8]), the IC50 was more than 100 µM. Further, in the data set with KOS strain of HSV-1 (setting [9]), the EC50 is more than 200 µM. In data set [3], the CC50 at 72 h was more than 100 µM.
As for `CCOC(=O)C(Cc1ccccc1)NP(=O)(COCCn1cnc2c(N)ncnc21)NC(Cc1ccccc1)C(=O)OCC` (stereo not shown) [Ex 12], in the data set on HSV-2 (strain 414-92) (setting [8]), the IC50 is 20 µM. Also, in data set [3], the CC50 at 72 h worked out at 80 µM.
Consider `Nc1ccn(C[C@@H](CO)OCP(=O)(O)O)c(=O)n1` [HPMPC], for which the antiviral activity result in data set [1] and in data set [4] was “active” each time. In addition, the IC50 with HCMV was 0.4 µM.
For the compound `O=C(Nc1ccn(C[C@H]2COP(=O)(O)CO2)c(=O)n1)c1ccccc1` [N^4 -benzoyl cHPMPC], the IC50 in the data set on HCMV is 22 µM.
`Nc1ncnc2c1ncn2CCOCP(=O)(O)O` [PMEA, reference compound]: the IC50 is 21 µM in the data set on HSV-2 (strain 414-92) and 19.3 µM in the data set on HSV II. Further, the Oral bioavailability in data set [5] is reported as 2-4%. The EC50 with KOS strain of HSV-1 (Human alphaherpesvirus 1, Vero) was 138 µM. In addition, in the data set “in vitro”, the CC50 was determined as 2000 µM.
In the case of `CCOc1ccccc1OP(=O)(COCCn1cnc2c(N)ncnc21)Oc1ccccc1OCC` [bis(2-ethoxyphenyl)PMEA, Bis(2-ethoxyphenyl)PMEA], the “activity (inhibition of cytopathic effects)” value in the data set on HSV II is “active”.
As for `CN(C)c1cccc(OP(=O)(COCCn2cnc3c(N)ncnc32)Oc2cccc(N(C)C)c2)c1` [bis(3-dimethylaminophenyl)PMEA], the “activity (inhibition of cytopathic effects)” value with HSV II was “active”.
In the case of `COc1cccc(OP(=O)(COCCn2cnc3c(N)ncnc32)Oc2cccc(OC)c2)c1` [bis(3-methoxyphenyl)PMEA], the “activity (inhibition of cytopathic effects)” value in the data set with HSV II is reported as “active”.
Same read-out and setting: the value for `Nc1ncnc2c1ncn2CCOCP(=O)(Oc1ccc(F)cc1)Oc1ccc(F)cc1` [bis(4-fluorophenyl)PMEA] was “active”.
Consider `CC(C)(C)C(=O)OCOP(=O)(COCCn1cnc2c(N)ncnc21)OCOC(=O)C(C)(C)C` [bis(POM)PMEA, reference compound], for which, in the data set on HSV II, the “activity (inhibition of cytopathic effects)” value is on record as “active” and the IC50 was 0.5 µM. Besides, the bioavailability (usually the share of a dose that reaches the circulation, judged against a reference dose that is usually intravenous) in the data set “in vivo” was approximately 25%. This compound also returned a CC50 in the data set “in vitro” of more than 10 µM.
Take `Nc1ncnc2c1ncn2CCOCP(=O)(OCOC(=O)C12CC3CC(CC(C3)C1)C2)OCOC(=O)C12CC3CC(CC(C3)C1)C2` [bis(adamantoyl oxymethyl)PMEA, bis(adamantoyl oxymethyl)PMEA ester]: the “activity (inhibition of cytopathic effects)” value in the data set on HSV II is listed as “active”.
Same read-out and setting: the result for `Nc1ncnc2c1ncn2CCOCP(=O)(Oc1ccccc1)Oc1ccccc1` [bis(phenyl)PMEA, Bis(phenyl)PMEA] reads “active”.
`CC(C)(C)C(=O)OCOP1(=O)CO[C@@H](Cn2ccc(N)nc2=O)CO1` (stereo partly shown) [cHPMPC pivaloyloxymethyl ester]: the figures for the “metabolic conversion in homogenate” value in [6] (one of the two phosphorus isomers) and in [6] (the other phosphorus isomer) were “converted to cHPMPC” and “converted to HPMPC pivaloyloxymethyl monoester”, respectively. Moreover, the “conversion in intestinal wash” value in data set [7] is reported as “converted to HPMPC pivaloyloxymethyl monoester”.
As to `Nc1ncnc2c1ncn2CCOCP(=O)(O)Oc1ccccc1` [monophenylPMEA, monophenyl ester of PMEA], the “activity (inhibition of cytopathic effects)” value in the data set on HSV II is listed as “active”.
